Dmax, DC50 and IC50 data for twelve compounds are collected here from patent US12139492B2 (Endotarget Inc., priority 2021, dated 2024).

Molecules are shown by their SMILES.

The target in one experiment is BTK (Homo sapiens, UniProt Q06187). As to the kind of experiment: Degradation of BTK protein in Namalwa cells (Western blot; DC50, Dmax). The following applies: for DC50: BTK degradation, cell line not given. On the technique in general: In western blotting, separated proteins are transferred to a membrane and probed.
BTK, sequence (Q06187 whole entry): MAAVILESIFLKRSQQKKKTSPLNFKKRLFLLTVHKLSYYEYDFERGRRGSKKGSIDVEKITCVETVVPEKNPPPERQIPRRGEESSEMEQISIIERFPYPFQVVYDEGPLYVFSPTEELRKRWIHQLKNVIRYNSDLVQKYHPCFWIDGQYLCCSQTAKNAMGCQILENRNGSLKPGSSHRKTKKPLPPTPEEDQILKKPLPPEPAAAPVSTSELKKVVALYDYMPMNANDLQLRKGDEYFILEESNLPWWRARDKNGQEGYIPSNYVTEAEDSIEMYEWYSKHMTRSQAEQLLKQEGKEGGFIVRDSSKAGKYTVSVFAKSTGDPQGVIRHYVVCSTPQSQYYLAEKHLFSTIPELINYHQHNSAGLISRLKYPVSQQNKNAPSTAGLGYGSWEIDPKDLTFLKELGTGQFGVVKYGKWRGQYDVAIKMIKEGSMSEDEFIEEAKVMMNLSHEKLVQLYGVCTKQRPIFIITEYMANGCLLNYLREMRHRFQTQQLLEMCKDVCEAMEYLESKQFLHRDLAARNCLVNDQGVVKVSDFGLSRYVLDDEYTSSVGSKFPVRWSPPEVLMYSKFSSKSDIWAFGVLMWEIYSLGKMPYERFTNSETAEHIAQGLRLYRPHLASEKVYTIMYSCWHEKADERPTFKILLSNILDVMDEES
Another experiment concerns Mino cells. Description: Antiproliferative effect, MTS cell viability assay, Mino cells. The format is cell-based. Conditions: Homo sapiens, MINO, Mino mantle cell lymphoma cells; read-out: IC50 (anti-proliferation) Mino cells. In short, it runs like this: (§1)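 Readout was MTS-derived formazan absorbance (490 nm) reflecting metabolically active cells. Treatment lasted 72 h over a 0–10 μM range (0.001, 0.01, 0.1, 1, 10 μM) in JeKo-1 and Mino B-cell malignancy cells.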

In another experiment the test system is JeKo-1 cells. As to the kind of experiment: Antiproliferative effect, MTS cell viability assay, JeKo-1 cells. The format is cell-based. Conditions: Homo sapiens; JeKo-1 mantle cell lymphoma cells; read-out: IC50 (anti-proliferation) JeKO-1 cells. The essentials: as §1
In general terms: Tetrazolium dyes change colour on reduction, which living cells bring about.

A word on the Dmax: it is the greatest extent of degradation seen. As usually defined, the DC50 is the midpoint of the concentration-degradation curve. Take `Nc1ncnc2c1c(-c1ccc(Oc3ccccc3)cc1)nn2C1CCN(C2CCN(C(=O)N3CCC(CC4CCN(c5ccc6c(c5)C(=O)N(C5CCC(=O)NC5=O)C6=O)CC4)CC3)CC2)CC1` (stereo not drawn) [Compound 237, 5-(4-((1-(4-(4-amino-3-(4-phenoxyphenyl)-1H-pyrazolo[3,4-d]pyrimidin-1-yl)-[1,4′-bipiperidine]-1′-carbonyl)piperidin-4-yl)methyl)piperidin-1-yl)-2-(2,6-dioxopiperidin-3-yl)isoindoline-1,3-dione]: the maximal degradation (Dmax) at BTK was greater than 90%. At BTK, this compound returned a DC50 of 10 to 50 nM. Also, the figures for the IC50 in the experiment on Mino cells and with JeKo-1 cells were less than 1000 nM and 1000 to 10000 nM, respectively.
The like results for `Nc1ncnc2c1c(-c1ccc(Oc3ccccc3)cc1)nn2C1CCN(C2CCN(C(=O)N3CCC(CC4CCN(c5ccc6c(c5)CN(C5CCC(=O)NC5=O)C6=O)CC4)CC3)CC2)CC1` (stereo not drawn) [Compound 238, 3-(5-(4-((1-(4-(4-amino-3-(4-phenoxyphenyl)-1H-pyrazolo[3,4-d]pyrimidin-1-yl)-[1,4′-bipiperidine]-1′-carbonyl)piperidin-4-yl)methyl)piperidin-1-yl)-1-oxoisoindolin-2-yl)piperidine-2,6-dione] were, in that order, greater than 90%, less than 10 nM, less than 1000 nM and 1000 to 10000 nM.
Regarding `Nc1ncnc2c1c(-c1ccc(Oc3ccccc3)cc1)nn2C1CCN(C2CCN(C(=O)N3CCC(CN4CCN(c5ccc6c(c5)C(=O)N(C5CCC(=O)NC5=O)C6=O)CC4)CC3)CC2)CC1` (stereo not drawn) [Compound 239, 5-(4-((1-(4-(4-amino-3-(4-phenoxyphenyl)-1H-pyrazolo[3,4-d]pyrimidin-1-yl)-[1,4′-bipiperidine]-1′-carbonyl)piperidin-4-yl)methyl)piperazin-1-yl)-2-(2,6-dioxopiperidin-3-yl)isoindoline-1,3-dione], on BTK, the Dmax is greater than 90% and the DC50 lay in the range of 10 to 50 nM. Besides, the IC50 with Mino cells fell in the range of 1000 to 10000 nM. For the same compound, the IC50 in the experiment on JeKo-1 cells was less than 1000 nM.
The like results for `Nc1ncnc2c1c(-c1ccc(Oc3ccccc3)cc1)nn2C1CCN(C2CCN(C(=O)N3CCC(CN4CCN(c5ccc6c(c5)CN(C5CCC(=O)NC5=O)C6=O)CC4)CC3)CC2)CC1` (stereo not drawn) [Compound 240, 3-(5-(4-((1-(4-(4-amino-3-(4-phenoxyphenyl)-1H-pyrazolo[3,4-d]pyrimidin-1-yl)-[1,4′-bipiperidine]-1′-carbonyl)piperidin-4-yl)methyl)piperazin-1-yl)-1-oxoisoindolin-2-yl)piperidine-2,6-dione] were, in that order, greater than 90%, less than 10 nM, 1000 to 10000 nM and less than 1000 nM.
The like results for `Nc1ncnc2c1c(-c1ccc(Oc3ccccc3)cc1)nn2C1CCN(C2CCN(C(=O)N3CCN(CC4CCN(c5ccc6c(c5)C(=O)N(C5CCC(=O)NC5=O)C6=O)CC4)CC3)CC2)CC1` (stereo not drawn) [Compound 241, 5-(4-((4-(4-(4-amino-3-(4-phenoxyphenyl)-1H-pyrazolo[3,4-d]pyrimidin-1-yl)-[1,4′-bipiperidine]-1′-carbonyl)piperazin-1-yl)methyl)piperidin-1-yl)-2-(2,6-dioxopiperidin-3-yl)isoindoline-1,3-dione] were, in that order, greater than 90%, 10 to 50 nM, 1000 to 10000 nM and 1000 to 10000 nM.
At BTK, `Nc1ncnc2c1c(-c1ccc(Oc3ccccc3)cc1)nn2C1CCN(C2CCN(C(=O)N3CCN(CC4CCN(c5ccc6c(c5)CN(C5CCC(=O)NC5=O)C6=O)CC4)CC3)CC2)CC1` (stereo not drawn) [Compound 242, 3-(5-(4-((4-(4-(4-amino-3-(4-phenoxyphenyl)-1H-pyrazolo[3,4-d]pyrimidin-1-yl)-[1,4′-bipiperidine]-1′-carbonyl)piperazin-1-yl)methyl)piperidin-1-yl)-1-oxoisoindolin-2-yl)piperidine-2,6-dione] returned a Dmax greater than 90% and a DC50 of less than 10 nM. Further, the IC50 in the experiment on Mino cells was less than 1000 nM. Besides, the IC50 with JeKo-1 cells is 1000 to 10000 nM.
On BTK, `Nc1ncnc2c1c(-c1ccc(Oc3ccccc3)cc1)nn2C1CCN(C2CCN(C(=O)N3CCC(CN4CCC(c5ccc6c(c5)C(=O)N(C5CCC(=O)NC5=O)C6=O)CC4)CC3)CC2)CC1` (stereo not drawn) [Compound 243, 5-(1-((1-(4-(4-amino-3-(4-phenoxyphenyl)-1H-pyrazolo[3,4-d]pyrimidin-1-yl)-[1,4′-bipiperidine]-1′-carbonyl)piperidin-4-yl)methyl)piperidin-4-yl)-2-(2,6-dioxopiperidin-3-yl)isoindoline-1,3-dione] had a maximal degradation (Dmax) greater than 90% and a DC50 of less than 10 nM. Further, in the experiment on Mino cells, the IC50 was 1000 to 10000 nM. Besides, in the experiment on JeKo-1 cells, the IC50 lay within 1000 to 10000 nM.
`Nc1ncnc2c1c(-c1ccc(Oc3ccccc3)cc1)nn2C1CCN(C2CCN(C(=O)N3CCC(CN4CCC(c5ccc6c(c5)CN(C5CCC(=O)NC5=O)C6=O)CC4)CC3)CC2)CC1` (stereo not drawn) [Compound 244, 3-(5-(1-((1-(4-(4-amino-3-(4-phenoxyphenyl)-1H-pyrazolo[3,4-d]pyrimidin-1-yl)-[1,4′-bipiperidine]-1′-carbonyl)piperidin-4-yl)methyl)piperidin-4-yl)-1-oxoisoindolin-2-yl)piperidine-2,6-dione]: on BTK, the greatest degradation seen (Dmax) was greater than 90% and the DC50 is less than 10 nM. In addition, the IC50 with Mino cells lay within 1000 to 10000 nM. Moreover, in the experiment with JeKo-1 cells, the IC50 was in the range of 1000 to 10000 nM.
In the case of `Nc1ncnc2c1c(-c1ccc(Oc3ccccc3)cc1)nn2C1CCN(C2CCN(C(=O)N3CCN(CCN4CCN(c5ccc6c(c5)C(=O)N(C5CCC(=O)NC5=O)C6=O)CC4)CC3)CC2)CC1` (stereo not drawn) [Compound 245], on BTK, the greatest degradation seen (Dmax) was greater than 75% and the DC50 lay in the range of 10 to 50 nM. Also, the IC50 in the experiment on Mino cells fell in the range of 1000 to 10000 nM. Further, in the experiment on JeKo-1 cells, the IC50 is 1000 to 10000 nM.
On to `Nc1ncnc2c1c(-c1ccc(Oc3ccccc3)cc1)nn2C1CCN(C2CCN(C(=O)N3CCN(CCN4CCN(c5ccc6c(c5)CN(C5CCC(=O)NC5=O)C6=O)CC4)CC3)CC2)CC1` (stereo not drawn) [Compound 246, 3-(5-(4-(2-(4-(4-(4-amino-3-(4-phenoxyphenyl)-1H-pyrazolo[3,4-d]pyrimidin-1-yl)-[1,4′-bipiperidine]-1′-carbonyl)piperazin-1-yl)ethyl)piperazin-1-yl)-1-oxoisoindolin-2-yl)piperidine-2,6-dione], for which, on BTK, the greatest degradation seen (Dmax) was greater than 75% and the 50% degradation concentration (DC50) was 10 to 50 nM. In addition, the IC50 with Mino cells was in the range of 1000 to 10000 nM. In addition, in the experiment on JeKo-1 cells, the IC50 lay within 1000 to 10000 nM.
At BTK, `Nc1ncnc2c1c(-c1ccc(Oc3ccccc3)cc1)nn2C1CCN(C2CCN(C(=O)N3CCN(CCC4CCN(c5ccc6c(c5)C(=O)N(C5CCC(=O)NC5=O)C6=O)CC4)CC3)CC2)CC1` (stereo not drawn) [Compound 247, 5-(4-(2-(4-(4-(4-amino-3-(4-phenoxyphenyl)-1H-pyrazolo[3,4-d]pyrimidin-1-yl)-[1,4′-bipiperidine]-1′-carbonyl)piperazin-1-yl)ethyl)piperidin-1-yl)-2-(2,6-dioxopiperidin-3-yl)isoindoline-1,3-dione] had a Dmax greater than 75% and a DC50 of 10 to 50 nM. In the experiment with Mino cells, the IC50 is 1000 to 10000 nM. In addition, the IC50 in the experiment on JeKo-1 cells was in the range of 1000 to 10000 nM.
Take `Nc1ncnc2c1c(-c1ccc(Oc3ccccc3)cc1)nn2C1CCN(C2CCN(C(=O)N3CCN(CCC4CCN(c5ccc6c(c5)CN(C5CCC(=O)NC5=O)C6=O)CC4)CC3)CC2)CC1` (stereo not drawn) [Compound 248]: at BTK, the greatest degradation seen (Dmax) was greater than 75% and the DC50 lay within 10 to 50 nM. Also, the IC50 in the experiment with Mino cells was less than 1000 nM. Further, the IC50 in the experiment on JeKo-1 cells is 1000 to 10000 nM.
